Data taken from ChEMBL document CHEMBL6087459 (J Med Chem, 2025).
Active and inactive are the calls of the source. No cut-off for these calls is given here.

Key:
HCT-8 [1] = experiment: Cytotoxicity against human HCT-8 cells assessed as reduction in cell numbers upto 50 uM incubated for 48 hrs by high-density microscopic celltiter aqueous assay; assay type: toxicity, cell-based; details: hct-8, 48 h
Cryptosporidium parvum [2] = experiment: Antiparasitic activity against Cryptosporidium parvum Iowa oocyst infected in human HCT-8 cells assessed as reduction in asexual replication pre-infected with cells for 3 hrs followed by compound addition and measured after 48 hrs by staining based automated fluorescence microscopic analysis; assay type: functional, organism-based
Cytochrome P450 2B6 = Cytochrome P450 2B6 (Homo sapiens, UniProt P20813); experiment: Inhibition of CYP2B6 (unknown origin) incubated for 20 mins by fast gradient LC-MS analysis
[3] = target: 3',5'-cyclic-AMP phosphodiesterase 4D (Homo sapiens, UniProt Q08499); experiment: Inhibition of human PDE4D2 at 10 uM by Eurofins kinase assay relative to control
Chain of 3',5'-cyclic-AMP phosphodiesterase 4D (Q08499 whole entry): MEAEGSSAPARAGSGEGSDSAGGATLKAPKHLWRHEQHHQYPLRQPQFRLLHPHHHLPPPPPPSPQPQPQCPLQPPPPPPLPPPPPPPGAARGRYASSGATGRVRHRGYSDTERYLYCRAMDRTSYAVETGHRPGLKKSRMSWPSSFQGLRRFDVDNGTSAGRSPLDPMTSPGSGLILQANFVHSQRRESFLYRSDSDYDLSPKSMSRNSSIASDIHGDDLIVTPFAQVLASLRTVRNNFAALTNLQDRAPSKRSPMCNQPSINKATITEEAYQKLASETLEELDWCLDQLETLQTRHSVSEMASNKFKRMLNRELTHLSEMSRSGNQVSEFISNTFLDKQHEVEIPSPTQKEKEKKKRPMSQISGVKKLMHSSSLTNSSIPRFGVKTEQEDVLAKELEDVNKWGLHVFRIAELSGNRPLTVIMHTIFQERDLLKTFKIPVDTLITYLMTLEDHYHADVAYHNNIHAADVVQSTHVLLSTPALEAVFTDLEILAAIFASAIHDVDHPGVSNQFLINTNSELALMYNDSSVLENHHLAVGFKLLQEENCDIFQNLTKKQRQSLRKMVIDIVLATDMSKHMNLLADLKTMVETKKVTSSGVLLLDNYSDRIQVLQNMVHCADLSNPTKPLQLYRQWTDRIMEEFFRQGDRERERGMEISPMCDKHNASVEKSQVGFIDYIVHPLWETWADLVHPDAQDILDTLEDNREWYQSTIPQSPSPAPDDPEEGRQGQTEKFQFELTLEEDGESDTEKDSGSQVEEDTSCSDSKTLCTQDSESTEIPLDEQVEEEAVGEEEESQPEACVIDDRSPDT

Homo sapiens [4] = organism: Homo sapiens; experiment: Inhibition of human PDE4A1A at 10 uM by Eurofins kinase assay relative to control
[5] = target: cAMP and cAMP-inhibited cGMP 3',5'-cyclic phosphodiesterase 10A (Homo sapiens) (UniProt Q9Y233); experiment: Inhibition of human PDE10A2 at 10 uM by Eurofins kinase assay relative to control
Homo sapiens [6] = organism: Homo sapiens; experiment: Inhibition of human PDE6 at 10 uM by Eurofins kinase assay relative to control
Homo sapiens [7] = organism: Homo sapiens; experiment: Inhibition of human PDE1B at 10 uM by Eurofins kinase assay relative to control
[8] = target: High affinity 3',5'-cyclic-AMP phosphodiesterase 7A (Homo sapiens) (UniProt Q13946); experiment: Inhibition of human PDE7A1 at 10 uM by Eurofins kinase assay relative to control
Chain of High affinity 3',5'-cyclic-AMP phosphodiesterase 7A (Homo sapiens) (Q13946 whole entry): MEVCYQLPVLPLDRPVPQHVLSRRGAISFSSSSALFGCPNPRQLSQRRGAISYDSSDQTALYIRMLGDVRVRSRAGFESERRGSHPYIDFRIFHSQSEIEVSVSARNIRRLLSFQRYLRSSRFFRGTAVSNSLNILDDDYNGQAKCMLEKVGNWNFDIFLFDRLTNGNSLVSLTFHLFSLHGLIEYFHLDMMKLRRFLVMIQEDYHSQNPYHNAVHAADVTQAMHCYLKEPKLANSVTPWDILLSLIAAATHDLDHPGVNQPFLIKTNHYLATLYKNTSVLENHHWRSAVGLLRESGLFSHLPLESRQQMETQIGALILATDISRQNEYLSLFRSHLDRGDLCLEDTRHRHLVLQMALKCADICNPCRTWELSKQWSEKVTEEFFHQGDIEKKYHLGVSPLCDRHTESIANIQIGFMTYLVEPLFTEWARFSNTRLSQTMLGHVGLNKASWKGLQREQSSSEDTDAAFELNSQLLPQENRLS

[9] = target: cGMP-specific 3',5'-cyclic phosphodiesterase (Homo sapiens) (UniProt O76074); experiment: Inhibition of human PDE5 at 10 uM by Eurofins kinase assay relative to control
[10] = target: High affinity cAMP-specific and IBMX-insensitive 3',5'-cyclic phosphodiesterase 8A (Homo sapiens) (UniProt O60658); experiment: Inhibition of human PDE8A1 at 10 uM by Eurofins kinase assay relative to control
Chain of High affinity cAMP-specific and IBMX-insensitive 3',5'-cyclic phosphodiesterase 8A (Homo sapiens) (O60658 whole entry): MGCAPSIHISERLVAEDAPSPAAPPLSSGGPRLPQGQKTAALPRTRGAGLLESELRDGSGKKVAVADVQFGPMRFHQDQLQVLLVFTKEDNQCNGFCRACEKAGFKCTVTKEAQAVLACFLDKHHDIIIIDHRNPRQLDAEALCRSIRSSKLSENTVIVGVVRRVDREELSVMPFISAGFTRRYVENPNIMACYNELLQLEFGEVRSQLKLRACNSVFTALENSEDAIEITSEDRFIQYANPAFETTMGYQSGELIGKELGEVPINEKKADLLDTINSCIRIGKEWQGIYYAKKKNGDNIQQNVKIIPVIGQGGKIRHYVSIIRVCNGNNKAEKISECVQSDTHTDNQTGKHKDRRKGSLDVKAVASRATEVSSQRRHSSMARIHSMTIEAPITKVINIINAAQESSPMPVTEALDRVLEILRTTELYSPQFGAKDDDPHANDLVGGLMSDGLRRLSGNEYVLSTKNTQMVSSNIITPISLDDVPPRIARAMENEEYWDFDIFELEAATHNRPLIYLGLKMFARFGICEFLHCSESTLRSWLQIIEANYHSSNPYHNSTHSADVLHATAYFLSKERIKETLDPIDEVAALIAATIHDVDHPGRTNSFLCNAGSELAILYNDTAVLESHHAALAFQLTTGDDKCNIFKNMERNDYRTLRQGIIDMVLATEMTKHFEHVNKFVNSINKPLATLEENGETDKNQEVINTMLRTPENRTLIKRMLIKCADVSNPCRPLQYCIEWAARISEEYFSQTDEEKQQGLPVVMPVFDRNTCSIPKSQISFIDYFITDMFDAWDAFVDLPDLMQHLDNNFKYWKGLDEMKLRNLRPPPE

[11] = target: cGMP-dependent 3',5'-cyclic phosphodiesterase (Homo sapiens) (UniProt O00408); experiment: Inhibition of human PDE2A1 at 10 uM by Eurofins kinase assay relative to control
Chain of cGMP-dependent 3',5'-cyclic phosphodiesterase (Homo sapiens) (O00408 whole entry): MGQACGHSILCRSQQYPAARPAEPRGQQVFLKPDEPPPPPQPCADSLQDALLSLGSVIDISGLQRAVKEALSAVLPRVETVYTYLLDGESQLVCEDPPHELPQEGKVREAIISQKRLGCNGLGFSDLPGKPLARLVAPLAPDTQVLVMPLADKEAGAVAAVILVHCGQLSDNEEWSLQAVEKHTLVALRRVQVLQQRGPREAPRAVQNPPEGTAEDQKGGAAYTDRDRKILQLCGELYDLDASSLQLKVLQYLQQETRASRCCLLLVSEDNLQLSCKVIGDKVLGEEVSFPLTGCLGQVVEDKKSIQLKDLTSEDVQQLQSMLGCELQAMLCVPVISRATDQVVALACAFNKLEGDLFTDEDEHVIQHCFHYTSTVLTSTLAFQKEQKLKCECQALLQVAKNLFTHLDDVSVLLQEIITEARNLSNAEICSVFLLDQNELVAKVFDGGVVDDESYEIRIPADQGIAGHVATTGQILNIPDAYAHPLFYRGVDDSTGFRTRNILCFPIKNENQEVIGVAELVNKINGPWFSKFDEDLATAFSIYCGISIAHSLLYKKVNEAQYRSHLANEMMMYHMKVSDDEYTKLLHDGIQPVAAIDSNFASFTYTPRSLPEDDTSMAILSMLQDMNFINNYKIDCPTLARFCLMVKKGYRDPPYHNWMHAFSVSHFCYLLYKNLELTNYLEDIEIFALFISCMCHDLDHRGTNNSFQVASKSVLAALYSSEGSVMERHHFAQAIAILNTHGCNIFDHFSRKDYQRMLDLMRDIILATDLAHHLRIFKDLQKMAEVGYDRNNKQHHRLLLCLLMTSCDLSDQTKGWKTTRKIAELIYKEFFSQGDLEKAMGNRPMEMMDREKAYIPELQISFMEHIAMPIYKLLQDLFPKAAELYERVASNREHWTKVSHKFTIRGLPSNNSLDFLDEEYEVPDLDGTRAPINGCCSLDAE

Cryptosporidium parvum [12] = experiment: Antiparasitic activity against Cryptosporidium parvum Iowa oocyst infected in NOD SCID gamma mouse model assessed as reduction in parasite fecal shedding at 50 mg/kg, po administered twice daily for 7 days starting from day 7 post infection and measured on day 21 by qPCR analysis; assay type: functional, organism-based; details: time 14.0 day
[13] = target: 3',5'-cyclic-AMP phosphodiesterase 4B (Homo sapiens) (UniProt Q07343); experiment: Inhibition of human PDE4B1 at 10 uM by Eurofins kinase assay relative to control
Chain of 3',5'-cyclic-AMP phosphodiesterase 4B (Homo sapiens) (Q07343 whole entry): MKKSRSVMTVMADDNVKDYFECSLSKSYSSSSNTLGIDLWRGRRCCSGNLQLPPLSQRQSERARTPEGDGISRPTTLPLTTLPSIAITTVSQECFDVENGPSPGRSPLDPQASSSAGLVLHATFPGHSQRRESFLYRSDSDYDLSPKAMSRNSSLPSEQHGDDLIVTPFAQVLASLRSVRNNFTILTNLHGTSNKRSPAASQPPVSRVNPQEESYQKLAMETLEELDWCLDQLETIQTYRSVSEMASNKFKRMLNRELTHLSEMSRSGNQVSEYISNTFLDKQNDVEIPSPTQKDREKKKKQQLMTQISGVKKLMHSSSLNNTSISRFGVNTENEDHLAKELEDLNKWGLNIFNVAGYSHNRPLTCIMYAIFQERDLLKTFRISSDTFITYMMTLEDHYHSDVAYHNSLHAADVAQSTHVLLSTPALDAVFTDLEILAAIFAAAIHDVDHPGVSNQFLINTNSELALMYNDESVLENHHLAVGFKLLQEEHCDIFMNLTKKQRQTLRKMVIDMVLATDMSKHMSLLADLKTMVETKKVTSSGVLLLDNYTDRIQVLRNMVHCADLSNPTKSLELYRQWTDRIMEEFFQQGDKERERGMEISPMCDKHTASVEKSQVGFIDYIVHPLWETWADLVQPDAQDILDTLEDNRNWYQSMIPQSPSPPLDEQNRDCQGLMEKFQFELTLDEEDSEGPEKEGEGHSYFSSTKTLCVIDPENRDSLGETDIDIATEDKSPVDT

[14] = target: cGMP-inhibited 3',5'-cyclic phosphodiesterase 3A (Homo sapiens) (UniProt Q14432); experiment: Inhibition of human PDE3A at 10 uM by Eurofins kinase assay relative to control
[15] = target: cGMP-inhibited 3',5'-cyclic phosphodiesterase 3B (Homo sapiens) (UniProt Q13370); experiment: Inhibition of human PDE3B at 10 uM by Eurofins kinase assay relative to control
Chain of cGMP-inhibited 3',5'-cyclic phosphodiesterase 3B (Homo sapiens) (Q13370 whole entry, looked up): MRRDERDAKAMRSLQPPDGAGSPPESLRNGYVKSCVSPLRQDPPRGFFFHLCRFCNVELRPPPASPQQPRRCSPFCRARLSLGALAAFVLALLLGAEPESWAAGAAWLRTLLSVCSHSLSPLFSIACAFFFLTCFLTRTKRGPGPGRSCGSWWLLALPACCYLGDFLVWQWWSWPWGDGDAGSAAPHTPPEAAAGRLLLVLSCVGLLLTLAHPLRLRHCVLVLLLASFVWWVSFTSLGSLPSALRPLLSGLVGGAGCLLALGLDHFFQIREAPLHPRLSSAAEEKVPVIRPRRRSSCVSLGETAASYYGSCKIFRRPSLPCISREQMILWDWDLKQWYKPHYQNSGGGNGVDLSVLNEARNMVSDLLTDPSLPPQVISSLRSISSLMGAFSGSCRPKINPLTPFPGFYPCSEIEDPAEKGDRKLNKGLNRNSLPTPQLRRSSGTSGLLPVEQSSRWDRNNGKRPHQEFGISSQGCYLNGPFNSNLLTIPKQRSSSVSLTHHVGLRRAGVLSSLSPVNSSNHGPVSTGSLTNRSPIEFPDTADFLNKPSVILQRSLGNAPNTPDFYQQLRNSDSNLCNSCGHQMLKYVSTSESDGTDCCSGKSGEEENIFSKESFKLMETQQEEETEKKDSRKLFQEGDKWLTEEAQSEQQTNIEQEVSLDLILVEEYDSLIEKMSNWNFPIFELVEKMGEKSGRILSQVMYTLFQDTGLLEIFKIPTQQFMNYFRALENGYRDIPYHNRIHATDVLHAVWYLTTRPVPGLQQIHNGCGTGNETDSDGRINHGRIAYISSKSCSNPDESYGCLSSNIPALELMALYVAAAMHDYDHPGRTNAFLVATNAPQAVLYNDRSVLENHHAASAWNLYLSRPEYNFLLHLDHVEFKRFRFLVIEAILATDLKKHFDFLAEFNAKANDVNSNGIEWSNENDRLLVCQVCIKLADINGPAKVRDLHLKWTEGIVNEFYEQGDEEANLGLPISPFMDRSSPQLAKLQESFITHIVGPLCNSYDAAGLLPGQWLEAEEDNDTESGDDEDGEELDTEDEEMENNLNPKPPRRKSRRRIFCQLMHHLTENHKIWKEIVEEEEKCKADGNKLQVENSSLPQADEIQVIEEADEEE

[16] = target: Dual 3',5'-cyclic-AMP and -GMP phosphodiesterase 11A (Homo sapiens) (UniProt Q9HCR9); experiment: Inhibition of human PDE11A at 10 uM by Eurofins kinase assay relative to control
HCT-8 [17] = experiment: Cytotoxicity against human HCT-8 cells assessed as inhibition of cell proliferation at 25 to 50 uM incubated for 48 hrs by Celltiter aqueous assay; assay type: toxicity, cell-based; details: hct-8, 48 h, dose 25-50 µM
HCT-8 [18] = experiment: Cytotoxicity against human HCT-8 cells assessed as reduction in cell numbers at 25 uM incubated for 48 hrs by high-density microscopic celltiter aqueous assay relative to control; assay type: toxicity, cell-based; parameters: scale not given: the % may be the effect or the level left; details: hct-8, 48 h
HCT-8 [19] = experiment: Cytotoxicity against human HCT-8 cells assessed as reduction in cell numbers at 50 uM incubated for 48 hrs by high-density microscopic celltiter aqueous assay relative to control; assay type: toxicity, cell-based; parameters: scale not given: the % may be the effect or the level left; details: hct-8, 48 h

Structure (SMILES) | Activity (HCT-8 [1]) | EC50 (Cryptosporidium parvum [2]) [µM] | other results
CCc1nn(C)c2nc(C3=CCC(C(=O)O)CC3)nc(NCc3ccc(F)cc3)c12 (stereo not drawn) | Non-toxic | 1.8 | 
CCc1nn(C)c2nc(-c3ccc4c(c3)CNC4=O)nc(NCc3ccc(F)cc3)c12 | Non-toxic | > 50 | 
CCc1nn(C)c2nc(C(=O)O)nc(NCc3ccc(F)cc3)c12 | Non-toxic | > 50 | 
CCc1nn(C)c2nc(-c3ccc(O)cc3)nc(NCc3ccc(F)cc3)c12 | Non-toxic | 5 | 
CCc1nn(C)c2nc(-c3ccc(N4CCC(C(=O)O)CC4)cc3)nc(NCc3ccc(F)cc3)c12 | Non-toxic | 11 | 
CCc1nn(C)c2nc(-c3cccc(S(N)(=O)=O)c3)nc(NCc3ccc(F)cc3)c12 | Non-toxic | 2.5 | 
CCc1nn(C)c2nc(-c3ccc(C(=O)O)c(F)c3)nc(NCc3ccc(F)cc3)c12 | Non-toxic | 3.4 | 
CCc1nn(C)c2nc(-c3ccc(-c4nnn[nH]4)cc3)nc(NCc3ccc(F)cc3)c12 | Non-toxic | 5.8 | 
CCc1nn(C)c2nc(-c3ccc(C(N)=O)cc3)nc(NCc3ccc(F)cc3)c12 | Non-toxic | 27 | 
CCc1nn(C)c2nc(-c3cncnc3)nc(NCc3ccc(F)cc3)c12 | Non-toxic | > 50 | 
CCc1nn(C)c2nc(-c3ccc(Nc4ccc(C(=O)O)cn4)cc3)nc(NCc3ccc(F)cc3)c12 | Non-toxic | 2.9 | 
CCc1nn(C)c2nc(-c3ccc(OC)cc3)nc(NCc3ccc(F)cc3)c12 | Non-toxic | 15 | 
CCc1nn(C)c2nc(-c3c(C)noc3C)nc(NCc3ccc(F)cc3)c12 | Non-toxic | 4.5 | 
CCc1nn(C)c2ncnc(NCc3ccc(F)cc3)c12 | Non-toxic | > 50 | 
CCc1nn(C)c2nc(-c3ccc4c(c3)OCO4)nc(NCc3ccc(F)cc3)c12 | Non-toxic | > 50 | 
CCOC(=O)c1cccc(-c2nc(NCc3ccc(F)cc3)c3c(CC)nn(C)c3n2)c1 | Non-toxic | 5.5 | 
CCc1nn(C)c2nc(-c3ccccc3)nc(NCc3ccc(F)cc3)c12 | Non-toxic | 16 | 
CCc1nn(C)c2nc(-c3cccc(C(=O)O)c3)nc(NCc3ccc(F)cc3)c12 | Non-toxic | 1.2 | 
CCc1nn(C)c2nc(-c3ccc(CC(=O)O)cc3)nc(NCc3ccc(F)cc3)c12 | Non-toxic | 9.5 | 
CCOC(=O)c1ccc(-c2nc(NCc3ccc(F)cc3)c3c(CC)nn(C)c3n2)cc1 | Non-toxic | > 25 | 
CCc1nn(C)c2nc(-c3ccc(P(=O)(O)O)cc3)nc(NCc3ccc(F)cc3)c12 | Non-toxic | > 50 | 

Structure (SMILES) | Activity (HCT-8 [1]) | EC50 (Cryptosporidium parvum [2]) [µM] | other results
CCc1nn(C)c2nc(-c3ccc(CO)cc3)nc(NCc3ccc(F)cc3)c12 | Non-toxic | 16 | 
CCc1nn(C)c2nc(-c3ccc4c(O)nn(C)c4c3)nc(NCc3ccc(F)cc3)c12 | Non-toxic | 3 | 
CCc1nn(C)c2nc(-c3ccc(C#N)cc3)nc(NCc3ccc(F)cc3)c12 | Non-toxic | > 25 | 
CCc1nn(C)c2nc(-c3ccc(OC)c(OC)c3)nc(NCc3ccc(F)cc3)c12 | Non-toxic | 7.2 | 
CCc1nn(C)c2nc(-c3ccc(C(=O)O)nc3)nc(NCc3ccc(F)cc3)c12 | Non-toxic | 4.7 | 
CCc1nn(C)c2nc(-c3cccc(OC)c3)nc(NCc3ccc(F)cc3)c12 | Non-toxic | 15 | 
CCc1nn(C)c2nc(-c3ccc(F)c(C(=O)O)c3)nc(NCc3ccc(F)cc3)c12 | Non-toxic | 5.2 | 
COC(=O)[C@H](c1ccccc1Cl)N1CCc2sccc2C1 [CLOPIDOGREL] |  |  | IC50 (Cytochrome P450 2B6): 0.2 µM
CCc1nn(C)c2nc(-c3ccc(C4CCC(C(=O)O)CC4)cc3)nc(NCc3ccc(F)cc3)c12 (stereo not drawn) | Non-toxic | 4.4 | 
CC(=O)Oc1ccccc1C(=O)Nc1ncc([N+](=O)[O-])s1 [NITAZOXANIDE] | Non-toxic |  | 
CCc1nn(C)c2nc(-c3ccc4c(c3)COB4O)nc(NCc3ccc(F)cc3)c12 | Non-toxic |  | inhibition [3]: 27%; inhibition (Homo sapiens [4]): 54%; inhibition [5]: -5.5%; inhibition (Homo sapiens [6]): 63%; inhibition (Homo sapiens [7]): -7.2%; inhibition [8]: 23%; inhibition [9]: 80%; inhibition [10]: 20%; inhibition [11]: 32%; Activity (Cryptosporidium parvum [12]): Active; inhibition [13]: 73%; inhibition [14]: 17%; inhibition [15]: 8%
CCc1nn(C)c2nc(-c3ccc(Cl)c(Cl)c3)nc(NCc3ccc(F)cc3)c12 | Non-toxic | 21 | 
CCc1nn(C)c2nc(-c3ccncc3)nc(NCc3ccc(F)cc3)c12 | Non-toxic | 8.6 | 
CCc1nn(C)c2nc(-c3ccc(B(O)O)cc3)nc(NCc3ccc(F)cc3)c12 | Non-toxic | 0.78 | inhibition [3]: 91%; inhibition (Homo sapiens [4]): 93%; inhibition [5]: 24%; inhibition (Homo sapiens [6]): 98%; inhibition (Homo sapiens [7]): 31%; inhibition [8]: 62%; inhibition [9]: 73%; inhibition [10]: 29%; inhibition [11]: 95%; Activity (Cryptosporidium parvum [12]): Active; inhibition [13]: 96%; inhibition [16]: 82%; inhibition [14]: 62%; inhibition [15]: 45%
CCc1nn(C)c2nc(-c3ccc4c(O)n[nH]c4c3)nc(NCc3ccc(F)cc3)c12 |  | 6.1 | Activity (HCT-8 [17]): Toxic; Activity (HCT-8 [18]): 78%; Activity (HCT-8 [19]): 89%
CCc1nn(C)c2nc(-c3ccc4c(c3)COC4=O)nc(NCc3ccc(F)cc3)c12 | Non-toxic | > 50 | 
CCc1nn(C)c2nc(-c3ccc(C(=O)N4CCNCC4)cc3)nc(NCc3ccc(F)cc3)c12 | Non-toxic | 5.7 | 
CCc1nn(C)c2nc(-c3ccccc3OC)nc(NCc3ccc(F)cc3)c12 | Non-toxic | 7.7 | 
CCc1nn(C)c2nc(CCC(=O)O)nc(NCc3ccc(F)cc3)c12 | Non-toxic | 9.3 | 
CCc1nn(C)c2nc(-c3ccc(S(C)(=O)=O)cc3)nc(NCc3ccc(F)cc3)c12 | Non-toxic | 5.5 | 
